Data on ten compounds can be found in US11752138B2 (VANDERBILT UNIVERSITY, priority 2020, dated 2023).

Broadly, the IC50 is the concentration that gives 50% inhibition. A low value points to inhibition by little substance.

One experiment has as its target Human LDHA (Homo sapiens (Human), UniProt P00338). Description: human LDHA primary biochemical assay (Example 1). To be noted: biochemical LDHA inhibitory activity, assay of Example 1. The text has this: This example describes a human LDHA primary biochemical assay employed in the characterization of a compound of Formula I in an embodiment of the dislcosure.
Test compounds were placed in a Greiner Bio-One (Monroe, N.C.) 1536-well black solid bottom assay plate. 200 millimolar (mM) Tris HCl, pH 7.4, 100 micromolar (μM) EDTA and 0.01% TWEEN-20™, final concentration, was used as the assay buffer. The LDHA reagent was 2 nanomolar (nM) Human LDHA (Meridian Life Science, Inc., Memphis, Tenn.), final concentration, in assay buffer. The substrate reagent was 0.06 mM NADH and 0.2 mM sodium pyruvate, final concentration, in assay buffer. The resazurin/diaphorase coupling reagent was 0.037 mM resazurin and 0.133 milligrams per milliliter (mg/mL) diaphorase, final concentration, in assay buffer. The inhibition of LDHA activity was measured by fluorescence emission. […]

Another experiment has as its system LDH. Put plainly: LDH activity in mice liver lysates, rate of conversion of glyoxylate to oxalate (FIG. 2). It is filed as in vivo. To be noted: 5-10 mg/kg, oral daily dose for 5 days; liver harvested two hours after last dose; wild type and AGXT null mice. As to the method: FIG. 2. LDH activity as measured by the rate of conversion of glyoxylate (G) to oxalate (O) in mice livers. Wild type mice, closed circles; AGXT null mice; open squares. […] Liver was harvested from animals two hours after delivery of the last drug dose. Enzyme assays were performed with liver lysates in 0.1M Glycine-Sodium hydroxide buffer, pH 9.6, 20 mM glyoxylate, 3.25 mM NAD+, and the rate of increase in absorbance at 340 nm monitored at room temperature

`NS(=O)(=O)c1ccc(Cc2c(-c3cccc(-c4ccc(O)c(F)c4)c3)nn(-c3nc(C(=O)O)cs3)c2CC2CC2)cc1F` [Compound 229, 2-(5-(cyclopropylmethyl)-3-(3′-fluoro-4′-hydroxy-[1,1′-biphenyl]-3-yl)-4-(3-fluoro-4-sulfamoylbenzyl)-1H-pyrazol-1-yl)thiazole-4-carboxylic acid]: the IC50 against Human LDHA was below 100 nM.
Compound `Cc1ccc(C#Cc2cccc(-c3nn(-c4nc(C(=O)O)cs4)c(CC4CC4)c3Cc3ccc(S(N)(=O)=O)c(F)c3)n2)s1` [Compound 231, 2-(5-(cyclopropylmethyl)-4-(3-fluoro-4-sulfamoylbenzyl)-3-(6-((5-methylthiophen-2-yl)ethynyl)pyridin-2-yl)-1H-pyrazol-1-yl)thiazole-4-carboxylic acid] had an IC50 against Human LDHA below 100 nM.
On the same count and under the same terms, next, `Cc1ccc(C#Cc2cccc(-c3nn(-c4nc(C(=O)O)cs4)c(CCC4CC4)c3Cc3ccc(S(N)(=O)=O)c(F)c3)c2)o1` [Compound 232, 2-(5-(2-cyclopropylethyl)-4-(3-fluoro-4-sulfamoylbenzyl)-3-(3-((5-methylfuran-2-yl)ethynyl)phenyl)-1H-pyrazol-1-yl)thiazole-4-carboxylic acid]: below 100 nM.
The same measure, in the same setting: the value for `Cc1cnc(C#Cc2cccc(-c3nn(-c4nc(C(=O)O)cs4)c(CCC4CC4)c3Cc3ccc(S(N)(=O)=O)c(F)c3)c2)s1` [Compound 234, 2-(5-(2-cyclopropylethyl)-4-(3-fluoro-4-sulfamoylbenzyl)-3-(3-((5-methylthiazol-2-yl)ethynyl)phenyl)-1H-pyrazol-1-yl)thiazole-4-carboxylic acid] was below 100 nM.
On to `Cc1ncc(C#Cc2cccc(-c3nn(-c4nc(C(=O)O)cs4)c(CCC4CC4)c3Cc3ccc(S(N)(=O)=O)c(F)c3)c2)s1` [Compound 235, 2-(5-(2-cyclopropylethyl)-4-(3-fluoro-4-sulfamoylbenzyl)-3-(3-((2-methylthiazol-5-yl)ethynyl)phenyl)-1H-pyrazol-1-yl)thiazole-4-carboxylic acid], for which the IC50 on Human LDHA is below 100 nM.
Same read-out and setting: next, `Cc1nc(C#Cc2cccc(-c3nn(-c4nc(C(=O)O)cs4)c(CC4CC4)c3Cc3ccc(S(N)(=O)=O)c(F)c3)c2)cs1` [Compound 236, 2-(5-(cyclopropylmethyl)-4-(3-fluoro-4-sulfamoylbenzyl)-3-(3-((2-methylthiazol-4-yl)ethynyl)phenyl)-1H-pyrazol-1-yl)thiazole-4-carboxylic acid]: below 100 nM.
Regarding `Cc1cc(C#Cc2cccc(-c3nn(-c4nc(C(=O)O)cs4)c(CC4CC4)c3Cc3ccc(S(N)(=O)=O)c(F)c3)c2)cs1` [Compound 240, 2-(5-(cyclopropylmethyl)-4-(3-fluoro-4-sulfamoylbenzyl)-3-(3-((5-methylthiophen-3-yl)ethynyl)phenyl)-1H-pyrazol-1-yl)thiazole-4-carboxylic acid], the 50% inhibitory concentration (IC50) at Human LDHA was below 100 nM.
`Cc1ccc(C(=O)Cc2cccc(-c3nn(-c4nc(C(=O)O)cs4)c(CC4CC4)c3Cc3ccc(S(N)(=O)=O)c(F)c3)c2)s1` [Compound 242, 2-(5-(cyclopropylmethyl)-4-(3-fluoro-4-sulfamoylbenzyl)-3-(3-(2-(5-methylthiophen-2-yl)-2-oxoethyl)phenyl)-1H-pyrazol-1-yl)thiazole-4-carboxylic acid]: the IC50 at Human LDHA is below 100 nM.
On the same count and under the same terms, next, `Cc1nc(C#Cc2cccc(-c3nn(-c4nc(C(=O)O)cs4)c(CCC4CC4)c3Cc3ccc(S(N)(=O)=O)c(F)c3)c2)cs1` [Compound 243, 2-(5-(2-cyclopropylethyl)-4-(3-fluoro-4-sulfamoylbenzyl)-3-(3-((2-methylthiazol-4-yl)ethynyl)phenyl)-1H-pyrazol-1-yl)thiazole-4-carboxylic acid]: below 100 nM.
On Human LDHA, `Cc1ccc(C#Cc2cccc(-c3nn(-c4nc(C(=O)O)co4)c(CC4CC4)c3Cc3ccc(S(N)(=O)=O)c(F)c3)c2)s1` [Compound 247, 2-(5-(cyclopropylmethyl)-4-(3-fluoro-4-sulfamoylbenzyl)-3-(3-((5-methylthiophen-2-yl)ethynyl)phenyl)-1H-pyrazol-1-yl)oxazole-4-carboxylic acid] came in with a concentration for half-maximal inhibition (IC50) below 100 nM. In addition, in the experiment on LDH, the “suppression of oxalate production in mice liver (LDH activity, glyoxylate to oxalate)” value is “Maximal suppression of oxalate production”.
